# Laboratory results: US7858125B2, “Multi-component biocide composition for wood protection” (priority 2006, dated 2010)
# Legend:
# Coptotermes formosans = experiment: Termite bioassay, no-choice test procedure; type: in vivo; settings: dip-treated southern yellow pine blocks, 1 gram of termites, four weeks, 27° C., 80% RH
# Experimental: In this Example, various concentrations of a biocide composition were evaluated for its ability to inhibit termite infestation. The ability of the biocide composition was then compared to the ability of disodium octaborate tetrahydrate, a borate component, alone and an untreated control to inhibit termite infestation. Specifically, samples of the subterranean termite, Coptotermes formosans, were collected at the Formosan Termite Research Facility at McNeill, Miss. for a termite bioassay. To begin the termite bioassay, pre-weighed and pre-conditioned southern yellow pine blocks (1×1×1 centimeter) (n=5) were dip-treated with two concentrations of a biocide composition. A first control sample (Control A) was prepared by dipping blocks into DI water. A second control sample (Control B) was prepared by dipping the blocks into 0.28% (by weight) disodium octaborate tetrahydrate. […] Each block was conditioned to ensure all solvent had dissipated prior to being subjected to a termite bioassay according to no-choice test procedure (ASTM 1998). […] Damp filter paper was placed into the lid of each dish to help maintain humidity during a four-week incubation at 27° C. and 80% relative humidity. The dishes were examined daily and mortality of the termites was recorded. […]
# [1] = tested on: Reticulotermes flavipes (Kollar); experiment: Termite bioassay, no-choice test procedure; type: in vivo; settings: dip-treated southern yellow pine blocks, four weeks; for Termite Bioassay Mortality Rating: 1 gram of termites, 27° C., 80% RH; for Termite Bioassay Attack Rating: visual rating 10 (no attack), 9 light, 7 moderate, 4 heavy, 0 (complete failure)
# Description: The biocide compositions were additionally evaluated for their ability to inhibit termite infestation. Specifically, numerous samples of the subterranean termite, Reticulotermes flavipes (Kollar), were collected in Janesville, Wis. for a termite bioassay.
# To begin the termite bioassay, pre-weighed and pre-conditioned southern yellow pine blocks (1×1×1 centimeter) (n=5) were dip-treated with either the biocide compositions prepared above or the individual components. Five control samples were prepared by dipping blocks into DI water.
# Each block was conditioned to ensure all solvent had dissipated prior to being subjected to a termite bioassay according to no-choice test procedure (ASTM 1998). Each block was then placed in a lidded test dish with 50 grams sand, […] of DI water, and 1 gram of termites. The dishes were incubated at 27° C. and 80% relative humidity for four weeks. The dishes were examined after one and four weeks for tunneling and mortality. The mortality was scaled using a label of “none” (representing a mortality rating of 0%); “slight” (representing a mortality rating of from 1% to 33%); “moderate” (representing a mortality rating of from 34% to 66%) “heavy” (representing a mortality rating of from 67% to 99%); or “complete” (representing a mortality rating of 100%). At the end of the four-week test period, the blocks were removed from the dishes, cleaned, dried, re-conditioned and weighed to determine weight loss of the block, indicating the relative wood consumption of the block by the termites. Additionally, a visual rating of 10 (representing no attack); 9 (representing a light attack); 7 (representing a moderate attack); 4 (representing a heavy attack); or 0 (representing complete failure in inhibiting termite infestation), was recorded for each sample block.
# [2] = tested on: mixed spore preparation of Aspergillus niger, Penicillium chrysogenum and Trichoderma viride; experiment: Mold resistance of dip-treated wood stakes (ASTM D4445-91), mixed mold spore inoculum; type: cell-based; settings: Example 4; unseasoned southern yellow pine stakes dip-treated 15 s, 4 weeks, 27° C., 70% RH; scale 0-5
# Description: The biocide compositions were first tested for the efficacy in preventing mold fungal growth. The mold fungi used in the mold growth analysis included Aspergillus niger 2.242 (available from University of Virginia, Charlottesville, Va.), Penicillium chrysogenum PH02 (an isolate provided by Forest Products Laboratory, Madison, Wis.) and Trichoderma viride ATCC 20476 (available from American Type Culture Collection, Rockville, Md.). The mold fungi were first prepared by growing the various mold fungi species on 2% malt agar. A mixed spore preparation was then prepared by washing the surface of a 2-week old culture of each fungus with 10 milliliters of sterile deionized (DI) water according to the American Society for Testing and Materials (ASTM) standard D4445-91 (1998). Spore suspensions were transferred to a spray bottle and diluted to 100 milliliters with DI water. The spray bottle was adjusted to deliver 1 milliliter inoculum/spray.
# Specimens (7×20 millimeters cross section by 7 centimeters long) were cut from unseasoned southern yellow pine mill ends from a Mississippi sawmill and stored at 0° C. Average moisture content of the specimens was 48% by weight (n=3). Southern yellow pine oriented strand board (OSB) specimens (11×20 millimeters cross section by 7 centimeters long) were cut from a full sheet of OSB and conditioned to 70% relative humidity. Five replicate specimen stakes were dip-treated for approximately 15 seconds in each biocide composition and held in a covered container overnight according to the ASTM standard test method D4445-91 (1998). Specimens were then arranged over four layers of blotting paper that was saturated with 30 milliliters DI water and a polyethylene mesh spacer in sterile disposable Petri dishes (150×25 millimeters) (commercially available from B-D Falcon, Los Angeles, Calif.). Untreated stakes were dipped in DI water and served as Control A for water-based test chemicals. Additional stakes were dipped in 70% (by weight) ethanol to serve as Control B for test chemicals of low solubility. […]
# G. trabeum = experiment: Soil block test (AWPA E-10-01), brown-rot decay; type: cell-based, Gloeophyllum trabeum MAD 617; settings: vacuum-treated southern yellow pine blocks, 12 weeks (Example 1 text; Example 4, FIG. 1)
# Experimental: (§1) In addition to the mold fungi analysis above, the biocide compositions were tested for their efficacy in preventing decay fungal growth. The decay fungi used in the decay fungal growth analysis included Postia placenta MAD 698 (Fries) Lars. & Lomb., Gloeophyllum trabeum MAD 617 (Pers:Fries) Murrill, and Coriolus versicolor MAD 697 (L.:Fr.) Pilat. The decay fungi, all obtained from the Center of Forest Mycology Research (Forest Products Laboratory, Madison, Wis.) were maintained on 2% malt agar.
# (§2) To test the biocide compositions' abilities to inhibit decay fungal growth, soil block culture bottles were prepared according to American Wood Preservers' Association (AWPA) E-10-01 (2003). Southern yellow pine feeders were inoculated with two brown-rot fungus, P. placenta and G. trabeum and maple feeders were inoculated with one white-rot fungus, C. versicolor. Bottles were incubated at 27° C. and 70% relative humidity for three weeks until the fungus completely colonized each feeder. […] The blocks were weighed and the average percentage weight loss was calculated. […]
# (§3) To test the biocide compositions' abilities to inhibit decay fungal growth, soil block culture bottles were first prepared according to American Wood Preservers' Association (AWPA) E-10-01 (2003). […] The blocks were weighed and the average percentage weight loss was calculated.
# P. placenta = experiment: Soil block test (AWPA E-10-01), brown-rot decay; type: cell-based, Postia placenta MAD 698; settings: vacuum-treated southern yellow pine blocks, 12 weeks (Example 1 text; Example 4, FIG. 1)
# Experimental: as §1, §2, §3
# C. versicolor = experiment: Soil block test (AWPA E-10-01), white-rot decay; type: cell-based, Coriolus versicolor MAD 697; settings: vacuum-treated southern yellow pine blocks, 12 weeks (Example 1 text; Example 4, FIG. 1)
# Experimental: as §1, §2, §3
Compound,Average Weight Loss (%) (Coptotermes formosans),Termite Bioassay Mortality Rating [1],Termite Bioassay Attack Rating [1],"Mold Resistance Average Rating, Southern Pine [2]","Inhibition of decay by G. trabeum, in words (G. trabeum)","Inhibition of decay by P. placenta, in words (P. placenta)","Inhibition of decay by C. versicolor, in words (C. versicolor)"
"O.O.O.O.O=BOB1OB(OB=O)OB2OB([O-])OB([O-])OB(O1)O2.[Na+].[Na+] [Control B, disodium octaborate tetrahydrate]",4.20,–,–,–,–,–,–
"C[C@@H](c1ncncc1F)[C@](O)(Cn1cncn1)c1ccc(F)cc1F [E, Voriconazole]",–,None,0.0,0.04,–,–,–
"c1ccc2[nH]c(-c3cscn3)nc2c1 [F, Thiabendazole]",–,None,0.0,0.0,–,–,–
"CC(C)c1cccc(O)c(=O)c1 [G, Thujaplicin (isopropyltropolone)]",–,None,0.0,3.2,–,–,–
Thujaplicin (isopropyltropolone),–,–,–,–,did not inhibit decay,did not inhibit decay,did not inhibit decay
